Experimental data taken from patent US20220184003A1, “Formulations of Cannabidiol Derivatives and Their Use as Modulators of Cannabinoid Receptor Type 2 (CB2)” (EMERALD HEALTH PHARMACEUTICALS INC, priority 2019, published 2022).
≈ marks a conversion by molar mass, not a printed value. Where two headings read alike, the source gives them in different places.

Tests used:
[1] = tested on: cuprizone/rapamycin (C/R) mouse model; experiment: Cuprizone/rapamycin model, myelin assessment in grey and white matter; assay type: in vivo, Male C57BL/6J
Protocol: Myelin assessment in grey and white matter was evaluated via: (1) PLP staining and density in the hippocampus and cortex; and (2) PPD staining and manual counts in the corpus callosum.
Male C57BL/6J (n=5 or 12/group) were treated for 12 weeks with C/R to cause demyelination of white and gray matter regions of the brain. […] Thereafter, the brains were harvested and processed for immunohistochemical staining and quantification of myelinated axons in gray matter (hippocampus (HIP), cerebral cortex (CTX)) by proteolipid protein (PLP) staining and white matter (corpus callosum CC)) by paraphenylenediamine (PPD) staining.

[2] = Stability of VCE-004.8 during phytosomization (reflux in ethyl acetate); assay type: physicochemical; settings: area %
Protocol: FIG. 8 depicts a stability of VCE-004.8 during phytosomization, at reflux in ethyl acetate at different times (45 min, 6 hr and 24 hr).
A preliminary investigation of the compound stability gave indication that the active principle is stable in the process conditions, although an impurity peak not detected in the starting material and almost neglectable at […], increased after 6 hr (1.7% in area %) and grew after 24 hr (6.2% in area %), as shown in FIG. 8.

[3] = Turbidimetric aqueous solubility (estimated precipitation range); assay type: physicochemical; settings: aqueous solubility test at 37° C.
physchem [4] = assay type: physicochemical; settings: for solubility at 24 h / solubility at 24 hr: thermodynamic from solid
Protocol: A quantitative thermodynamic solubility determination on VGE-004.8 was performed. Suspensions of VCE-004.8 were prepared in different pharmaceutical vehicles and organic solvents. The organic solvents, lipid and co-solvent vehicles consisted of pure solvent or lipid, while the cyclodextrin solutions were prepared in phosphate buffer pH 7.0. […] The concentration of VCE-004.8 in solution was determined by HPLC analysis.

[5] = tested on: TGFβ-induced Col1A2 gene transcription and collagen synthesis; experiment: TGFβ-induced fibrotic responses in vitro; assay type: cell-based
[6] = Solvent shift method in SGF and SIF; assay type: physicochemical; settings: for API concentration in solution: SIF
Protocol: These experiments applied to a 5 mg/mL solution of VCE-004.8 in DMSO, of which 80 μL was added to 4 mL polymer solutions prepared in simulated intestinal fluid (SIF) and simulated gastric fluid (SGF). Subsequently the samples were incubated at 25° C. under continuous stirring, and after 0.5, 1, 2 and 4 hr, an aliquot was taken, filtered and analyzed by HPLC to determine the VCE-004.8 concentration in solution. Results are presented in FIG. 11 (SGF) and FIG. 12 (SIF).

[7] = Stress test of VCE-004.8 drug substance; assay type: physicochemical
Protocol: A stress test was performed concluding that VCE-004.8 drug substance is stable for 3 days at 65° C.+/−5° C. in glass vials. […] A short-term stability study at 40° C. was completed with indecisive results due to the early development stage of the impurity method.

[8] = Solubility of VCE-004.8 and its phytosomes in buffer medium at various pH; assay type: physicochemical; settings: 37 °C, thermodynamic from solid
Protocol: The solubility of Phytosome-VCE-004.8 was tested in buffer medium at various pH (1.2, 4, 5, 6, […] and 8.0). For each pH, independent supersaturated solutions of VCE-004.8 and its phytosomes were prepared. The suspensions w ere sonicated for 10 min and kept in a water bath at 37° C. for 2 hr. Then the final suspensions were filtered (with 0.45 PTFE disposable fitter) and the solutions were injected for HPLC analysis. […] The 1:2 ratio resulted to be slightly more soluble than the 1:1 ration, and the best behavior was shown at neutral and basic pH. Accordingly. Phytosome 1:2 was selected for following assessment of PK profile in rats (Formulation n°8). Phytosome 1:2 contained 24% of VCE-004.8 and was prepared in Methyl cellulose 1% in water for oral administration.

CB1 receptor = CB1 receptor (Homo sapiens, UniProt P21554); experiment: Receptor screening study, CB1 receptor affinity; assay type: binding
[9] = tested on: Theiler Murine Encephalomyelitis Virus-induced demyelmating disease model (TMEV); experiment: TMEV model; assay type: in vivo, mice
From the text: 2) Theiler Murine Encephalomyelitis Virus-induced demyelmating disease model (TMEV) that mimics progressive forms of MS.

physchem [10] = settings: pH 7.4
From the text: Lipophilicity is a key determinant of the PK behavior of drugs. It can influence distribution into tissues, absorption and the binding characteristics of a drug, as well as being an important factor in determining the solubility of a compound. Log D (distribution co-efficient) is used as a measure of lipophilicity.
The solution was transferred to tubes, centrifuged and the supernatant is drawn off the top, leaving any solid compound in the bottom. This supernatant was then syringe filtered through 0.2 μm filters to produce the initial solution. Three vials were prepared containing values. […] The vials were mixed to equilibrium, then centrifuged to ensure the two phases were fully separated before the octanol was removed and the buffer samples analyzed. For the quantitative analysis, the aqueous solutions were analyzed by LC MS/MS. The amount of VCE-004.8 in each vial was quantified against a 6 points standard curve which was produced by serially diluting the initial solution. Log D was calculated using the equation, shown in FIG. 7, wherein ConcINITlAL is a concentration of compound in the initial aqueous solution, ConcFINAL is a concentration of compound in final aqueous phase, Vaq is a volume of aqueous phase, and Voct is a volume of octanol phase.

[11] = oral 5, 10, 20 mg/kg/day for 6 weeks, vs vehicle control

Sequence of CB1 receptor (P21554 whole entry): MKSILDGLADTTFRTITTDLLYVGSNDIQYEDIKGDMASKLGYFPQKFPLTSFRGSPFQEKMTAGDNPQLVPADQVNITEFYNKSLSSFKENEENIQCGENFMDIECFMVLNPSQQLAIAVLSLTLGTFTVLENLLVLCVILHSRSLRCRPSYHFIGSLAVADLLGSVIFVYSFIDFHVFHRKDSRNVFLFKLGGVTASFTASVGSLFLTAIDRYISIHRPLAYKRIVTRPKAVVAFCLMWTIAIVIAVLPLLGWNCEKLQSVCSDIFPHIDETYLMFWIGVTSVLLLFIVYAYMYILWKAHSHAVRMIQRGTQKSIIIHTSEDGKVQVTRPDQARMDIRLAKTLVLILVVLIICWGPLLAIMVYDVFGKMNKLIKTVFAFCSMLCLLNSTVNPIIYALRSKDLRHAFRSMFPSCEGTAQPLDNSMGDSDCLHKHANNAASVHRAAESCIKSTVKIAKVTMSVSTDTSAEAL

C=C(C)C1CCC(C)=C[C@H]1C1=C(O)C(=O)C(CCCCC)=C(NCc2ccccc2)C1=O (stereo partly drawn) [VCE-004.8, (1′R,6′R)-3-(Benzylamine)-6-hydroxy-3′-methyl-4-pentyl-6′-(prop-1-en-2-yl)[1,1′-bi(cyclohexane)]-2′,3,6-triene-2,5-dione]
levels of myelinated axons in white matter (corpus callosum), dose relation [1]: dose related effect | area of PLP staining / myelination in the cortex [1, 11]: no significant increase | area of PLP staining / myelination in the hippocampus [1, 11]: no significant increase | impurity peak ([2]; after 6 hr at reflux in ethyl acetate): 1.7% | impurity peak ([2]; after 24 hr at reflux in ethyl acetate): 6.2% | Estimated Precipitation Range, Calculated Mid-range [3]: <6.5 µM | Estimated Precipitation Range, Lower Bound [3]: <1 µM | Estimated Precipitation Range, Upper Bound [3]: 6.5 µM | Solubility class (physchem [4]): practically insoluble | solubility at 24 h (physchem [4]; 25 °C, oil or lipid, Solubility): 35700 µg/mL (≈ 82300 µM) | solubility at 24 h (physchem [4]; 25 °C, oil or lipid, Solubility class (Ph. Eur.)): 33000 to 100000 µg/mL (≈ 76100 to 231000 µM) | solubility at 24 h (physchem [4]; 25 °C, pH 1, simulated gastric fluid, Solubility): < 8 µg/mL | solubility at 24 h (physchem [4]; 25 °C, pH 1, simulated gastric fluid, Solubility class (Ph. Eur.)): < 100 µg/mL | solubility at 24 h (physchem [4]; 25 °C, pH 2, aqueous buffer, Solubility): < 8 µg/mL | solubility at 24 h (physchem [4]; 25 °C, pH 5, aqueous buffer, Solubility): < 8 µg/mL | solubility at 24 h (physchem [4]; 25 °C, pH 5, aqueous buffer, Solubility class (Ph. Eur.)): < 100 µg/mL | solubility at 24 hr (physchem [4]; 25 °C, pH 7, aqueous buffer, Solubility): < 8 µg/mL | solubility at 24 hr (physchem [4]; 25 °C, pH 7, aqueous buffer, Solubility class (Ph. Eur.)): < 100 µg/mL | solubility at 24 h (physchem [4]; 25 °C, pH 7, aqueous with cosolvent or surfactant or cyclodextrin, Solubility class (Ph. Eur.)): < 100 µg/mL | solubility at 24 hr (physchem [4]; 25 °C, pH 9, aqueous buffer, Solubility): < 8 µg/mL | solubility at 24 hr (physchem [4]; 25 °C, pH 9, aqueous buffer, Solubility class (Ph. Eur.)): < 100 µg/mL | solubility at 24 h (physchem [4]; 37 °C, oil or lipid, Solubility): 23700 µg/mL (≈ 54700 µM) | Solubility class (Ph. Eur.) (physchem [4]; pH 2): Practicalty insoluble | Solubility class (physchem [4]; pH 7): practically insoluble | TGFβ-induced Col1A2 gene transcription and collagen synthesis [5]: inhibited | TGFβ-mediated myofibroblast differentiation [5]: inhibited | wound-healing activity [5]: impaired | VCE-004.8 concentration in solution ([6]; SGF, TGPS solution, after 4 hr, 25° C.): about 0.03 mg-mL | API concentration in solution ([6]; Eudragit L100, supersaturation for at least 1 hr): approximately 60 μg/mL | API concentration in solution ([6]; PVP K30, supersaturation for at least 1 hr): approximately 60 μg/mL | API concentration in solution ([6]; all the HPMC derivates (except for HPMC as is), from 0.5 to 1 hr): approximately 60 μg/mL | stress test: stable for ([7]; 65° C.+/−5° C. in glass vials): 3 days | temperatures at which degradation of the product was observed ([7]; stress test): above 65 °C | solubility thermodynamic at 2 h ([8]; pH 1.2, simulated gastric fluid): 0.005 µg/mL (≈ 0.0115 µM) | solubility thermodynamic at 2 h ([8]; pH 4.5, aqueous buffer): 0.005 µg/mL (≈ 0.0115 µM) | solubility thermodynamic at 2 h ([8]; pH 6.8, aqueous buffer): 0.003 µg/mL (≈ 0.00692 µM) | solubility thermodynamic at 2 h ([8]; pH 7.4, aqueous buffer): 0.001 µg/mL (≈ 0.00231 µM) | solubility thermodynamic at 2 h ([8]; pH 8, aqueous buffer): 0.001 µg/mL (≈ 0.00231 µM) | affinity for the CB1 receptor (CB1 receptor; at a concentration of 10 μM (4336 ng/mL)): did not show affinity | affinity for the CB1 receptor (CB1 receptor; receptor screening study): no detectable affinity | axonal disorganization ([9]; TMEV mice): prevented | clinical severity and neuropathology ([9]; TMEV model, actimeter test): attenuated | microglial reactivity and infiltration of inflammatory cells ([9]; TMEV-infected mice): significantly reduced | motor deficits ([9]; mice infected with Theiler's virus): ameliorated | demyelination ([9]; spinal cord of TMEV mice): significantly reduced | number of infiltrated CD4+ T cells and immune cells ([9]; spinal cord of TMEV mice): reduced | logD (physchem [10]): > 5
